Where two headings read alike, the source gives them in different places.

Data set [1] in a line: Microsomal metabolic stability, mouse. The data set is classed as in vitro ADME. The following applies: pooled liver microsomes, pH 7.4, read-out: Metab. stab, mouse t1/2. On the procedure: The microsomal metabolic stability assay utilizes pooled human, or animal (mouse) species, liver microsomes with supplemented cofactor (NADPH) to primarily facilitate cytochrome P450 (CYP) reactivity against target compound. Test compound (1 μM incubation concentration) and microsomes (0.5 mg/ml incubation concentration) were diluted in 0.1 M phosphate buffer, pH 7.4, in a volume of 150 μl. The reaction was initiated with addition of NADPH (1 mM). The incubation times were 0, 5, 15, 40 min and the reaction was quenched, at each time point, by addition of 100 μl acetonitrile containing Warfarin as IS. The plate was then sealed, centrifuged and frozen at −20 C until LC-MS/MS analysis.

In the next data set the target is xanthine oxidase (Bos taurus (Bovine), UniProt P80457). In words: Amplex Red xanthine oxidase (XO) assay. The data set is classed as biochemical. Further details: key: The sign “—” stands for “inactive”. The method, then: (§1) Reactive oxygen produced in whole cells or in membrane preparation of Nox1, Nox3, Nox4, Nox5 and xanthine oxidase and glucose oxidase were determined using Amplex Red as detection probe of formed H2O2. Amplex Red (10-acetyl-3,7-dihydroxyphenoxazine) in combination with HRP and co-factors reacts with H2O2 in a 1:1 stoichiometry to form a highly fluorescent resorufin excitated at 544 nm producing emission at 590 nm.
xanthine oxidase, sequence (P80457 whole entry): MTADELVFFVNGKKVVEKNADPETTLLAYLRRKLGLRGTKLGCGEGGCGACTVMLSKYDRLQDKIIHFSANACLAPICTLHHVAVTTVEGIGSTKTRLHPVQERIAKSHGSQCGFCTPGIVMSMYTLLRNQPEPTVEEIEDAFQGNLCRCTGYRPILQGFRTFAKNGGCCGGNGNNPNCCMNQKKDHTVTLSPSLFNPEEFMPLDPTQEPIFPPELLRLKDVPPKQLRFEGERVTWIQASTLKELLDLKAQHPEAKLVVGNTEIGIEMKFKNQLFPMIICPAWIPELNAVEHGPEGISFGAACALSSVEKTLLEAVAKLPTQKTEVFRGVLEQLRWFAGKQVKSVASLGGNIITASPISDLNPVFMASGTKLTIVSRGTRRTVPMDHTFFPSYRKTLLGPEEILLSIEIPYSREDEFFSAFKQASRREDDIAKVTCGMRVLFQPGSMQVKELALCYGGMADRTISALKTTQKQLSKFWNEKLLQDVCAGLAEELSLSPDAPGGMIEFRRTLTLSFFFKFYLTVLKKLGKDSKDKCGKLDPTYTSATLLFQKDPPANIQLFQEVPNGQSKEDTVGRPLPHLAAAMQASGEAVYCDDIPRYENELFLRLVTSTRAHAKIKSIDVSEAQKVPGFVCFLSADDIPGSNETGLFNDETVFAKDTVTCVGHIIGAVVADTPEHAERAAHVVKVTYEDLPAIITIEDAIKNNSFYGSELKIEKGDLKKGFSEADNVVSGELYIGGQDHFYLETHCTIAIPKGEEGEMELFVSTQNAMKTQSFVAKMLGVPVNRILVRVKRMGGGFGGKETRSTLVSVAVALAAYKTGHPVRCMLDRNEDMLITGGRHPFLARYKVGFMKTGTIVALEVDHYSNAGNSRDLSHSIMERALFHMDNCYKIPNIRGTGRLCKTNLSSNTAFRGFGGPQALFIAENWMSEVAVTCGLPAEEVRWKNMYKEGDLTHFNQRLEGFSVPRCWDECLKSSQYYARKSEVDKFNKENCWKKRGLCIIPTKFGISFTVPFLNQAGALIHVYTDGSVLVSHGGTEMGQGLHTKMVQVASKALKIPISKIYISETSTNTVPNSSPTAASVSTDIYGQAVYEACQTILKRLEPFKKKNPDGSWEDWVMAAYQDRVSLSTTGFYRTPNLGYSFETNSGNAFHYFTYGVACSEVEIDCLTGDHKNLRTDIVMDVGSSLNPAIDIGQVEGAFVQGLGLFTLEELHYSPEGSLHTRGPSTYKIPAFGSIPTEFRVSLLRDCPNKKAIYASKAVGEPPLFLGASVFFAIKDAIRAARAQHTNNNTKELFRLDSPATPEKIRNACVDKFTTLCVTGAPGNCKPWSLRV
The assay was designed for Amplex Red analysis of production of hydrogen peroxide. Test compounds were incubated with 5 mU/ml bovine derived xanthine oxidase for 15 min at room temperature followed by the addition of substrate and detection mix (final concentrations of 0.2 U/ml HRP, 5 μM hypoxanthine, and 50 μM Amplex Red). As described by Hirano K et al., Antioxid Redox Signal 2015 10; 23:358-374, production of hydrogen peroxide was followed by fluorescence detection during 30 min at 37° C. in a plate reader that use excitation at 544 nm producing emission at 590 nm.

The target in the next data set is hNox4 (Homo sapiens (Human), UniProt Q9NPH5). In words: Amplex Red assay of intact Nox4 expressing HEK293 cells. Type of data set: cell-based. The method, then:
(§2) HEK293 overexpressing Nox4 (CJ Nox4) cells were purchased from Redoxis, Lund, Sweden. HEK 293 cells expressing Nox5, Nox3 (HEK TRex) and CHO cells expressing Nox1, were a kind gift from Vincent Jaque Center Medical Universitaire, Geneva, Switzerland. Nox2 expressed in isolated neutrophils were isolated from whole blood (human), as previously described (Anvari E, et al., Free Radic Res 2015; 49:1308-1318).
HEK293 cells (CJ Nox4) were cultured in RPMI 1640 with Glutamax supplemented with FBS (10%), penicillin (100 U/ml) and streptomycin […] at 37° C. in air with 5% CO2. Every third passage 200 µg/ml neomycin were supplied in growth medium as selective agent.
as §1
Adherent cells (CHO, HEK) were collected by trypsinization, centrifuged, washed with HBSS, counted, and resuspended in HBSS. Cells were seeded in 96-well black flat bottom plates at a density of 50,000-100,000 cells/well. All compounds were dissolved in DMSO and concentrations ranging from 0.003 to 200 μM were tested in Nox cellular assays with a final concentration of DMSO of 1%. Cells were incubated at 37° C. with the compounds for 30 minutes before measurement. Cells expressing Nox1 and Nox2 were activated with the PKC activator PMA (0.1 μM). Nox5 was activated with the Ca2+ ionophore ionomycin (1 μM) and further enforced with PMA. The CJ HEK 293 cells overexpressed Nox4 constitutively. In the HTS screen HEK 293 TRex was used and tetracycline ([…]) was added 18 h before measurement to induce Nox4 expression. Production of hydrogen peroxide by Nox in intact cells was measured using Amplex Red fluorescence as described by Jaquet V, et al., Br J Pharmacol 2011; 164:507-520. Assay reagents including HRP ([…]) and Amplex Red (50 μM) were added to initiate production of hydrogen peroxide. Fluorescence was read in a fluorescence plate reader at 37° C. every minute between 30-60 minutes.

A short description of data set [2]: Plasma protein binding, human. The data set is classed as in vitro ADME. The following applies: 10 μM in plasma, equilibrium dialysis 4 h, read-out: fu % human plasma protein. On the procedure:
Example compounds were incubated at 10 μM in plasma and then equilibrium dialysed for 4 h, using a rapid equilibrium device. Protein binding (fu %) was determined by LS/MS as previously described (Anvari E, et al., vide supra).

The next data set concerns the target Nox2 (Homo sapiens (Human), UniProt P04839). In words: Nox2 inhibition in human neutrophils, isoluminol-dependent chemiluminescence. Type of data set: cell-based. Further details: key to IC50 Nox2: The sign “—” stands for “inactive”. The following applies: PMA stimulated human neutrophils. The method, then: as §2
Compounds of the invention were tested for selectivity against Nox2 in isolated neutrophils from whole blood (human), as previously described (Anvari E, et al., vide supra). Levels of ROS from PMA stimulated primary human neutrophils were measured using isoluminol-dependent chemiluminescence. […] The dye is excited by ROS and the light emitted when the excited molecules return to the ground state, relative to the amount of released ROS, is measured. This reaction is catalyzed and amplified by peroxidases. […] Compounds of the invention and GKT136901 were diluted at 4× working concentration and titrated from 100 μM to 0.006 μM in 1:4 steps as final concentrations. DPI was diluted in isoluminol buffer at 4× working concentration titrated from 10 μM to 0.0006 μM as final concentrations. PMA was diluted in isoluminol buffer at 4× working concentration for a final concentration of 30 ng/ml. […] Luminescence was detected using FluoStar Optima (BMG, Labtech). The isoluminol buffer was prepared immediately prior to addition to test plate. The buffer contained HRP fraction with or without PMA (30 ng/ml). Stock solutions at 6 μg/ml (PMA in HBSS), 3 μg/ml (PMA in DMSO) and 24 mM (DPI) were used and further diluted at the day of analysis to 4× working concentrations in HBSS with or without DMSO.

Data set [3] is described as follows: Determination of chemical stability. Type of data set: physicochemical. The method, then: Test compound was pipetted into an HPLC vial, from 10 mM DMSO, to yield 2 μM final concentration in three separate vials containing buffers with different pH. At reaction start the three different buffers were mixed with isopropanol (1:2, buffer:isopropanol). The buffers used were: pH 2 (H3PO4/KH2PO4 10 mM), pH 7.4 (KH2PO4/K2HPO4 10 mM) and pH 10 (Glycine/NaOH 10 mM). Immediately (<1 minute) after buffer or buffer/isopropanol addition, a 100 μl aliquot was added to a separate plate containing 100 μl acetonitrile:H2O (60:40) and Warfarin (internal standard, IS), sealed and frozen at −20° C. This test was made for 2 h and 20 h. Analysis was performed on a XEVO TQ mass spectrometer coupled to an Acquity UPLC system in ESI^+MRM mode, separation on a BEH C18 2×50 mm column.

[4] abbreviates: read-out: IC50 on hNox4 in recombinant cells.

Nox2, sequence (P04839 2-570): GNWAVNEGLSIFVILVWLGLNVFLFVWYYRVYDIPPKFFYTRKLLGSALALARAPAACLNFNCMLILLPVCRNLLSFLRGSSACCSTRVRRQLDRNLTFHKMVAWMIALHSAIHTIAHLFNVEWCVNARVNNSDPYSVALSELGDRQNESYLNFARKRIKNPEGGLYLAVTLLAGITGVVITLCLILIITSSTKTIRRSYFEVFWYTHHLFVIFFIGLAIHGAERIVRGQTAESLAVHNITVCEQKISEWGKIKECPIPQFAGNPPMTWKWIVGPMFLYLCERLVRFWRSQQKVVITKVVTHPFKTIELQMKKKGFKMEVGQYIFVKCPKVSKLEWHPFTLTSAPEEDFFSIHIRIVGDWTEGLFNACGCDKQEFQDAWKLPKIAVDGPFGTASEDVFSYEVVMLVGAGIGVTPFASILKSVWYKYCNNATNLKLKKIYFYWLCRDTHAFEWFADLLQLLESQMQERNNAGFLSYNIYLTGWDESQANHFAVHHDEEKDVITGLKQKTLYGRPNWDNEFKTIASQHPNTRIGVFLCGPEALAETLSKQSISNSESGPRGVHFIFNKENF
Nox2, sequence (P13498 2-195 partner): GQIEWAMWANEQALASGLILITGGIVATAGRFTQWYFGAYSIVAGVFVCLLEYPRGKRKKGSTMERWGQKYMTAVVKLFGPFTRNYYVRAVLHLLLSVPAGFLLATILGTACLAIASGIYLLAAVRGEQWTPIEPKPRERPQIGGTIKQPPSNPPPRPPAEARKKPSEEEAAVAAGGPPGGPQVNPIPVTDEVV
hNox4, sequence (Q9NPH5 whole entry): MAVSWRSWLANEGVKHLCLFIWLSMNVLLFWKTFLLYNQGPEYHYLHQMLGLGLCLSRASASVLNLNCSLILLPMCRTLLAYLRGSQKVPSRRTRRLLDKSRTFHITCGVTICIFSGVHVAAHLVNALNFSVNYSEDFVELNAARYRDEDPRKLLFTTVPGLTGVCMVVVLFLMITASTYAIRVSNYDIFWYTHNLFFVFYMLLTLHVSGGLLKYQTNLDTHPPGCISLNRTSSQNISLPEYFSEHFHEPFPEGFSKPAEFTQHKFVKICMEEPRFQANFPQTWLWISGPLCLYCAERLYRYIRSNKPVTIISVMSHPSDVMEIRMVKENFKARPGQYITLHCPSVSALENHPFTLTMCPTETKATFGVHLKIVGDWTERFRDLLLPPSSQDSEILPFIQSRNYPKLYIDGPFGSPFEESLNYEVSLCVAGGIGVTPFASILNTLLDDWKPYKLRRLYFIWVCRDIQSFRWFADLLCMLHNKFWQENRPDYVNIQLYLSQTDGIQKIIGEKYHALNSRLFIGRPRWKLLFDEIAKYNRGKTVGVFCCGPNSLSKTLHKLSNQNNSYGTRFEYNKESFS
hNox4, sequence (P13498 2-195 partner): as the sequence (P13498 2-195 partner) above

With `O=S(=O)(NCCc1ccccc1O)c1c(Cl)cc(Br)cc1Cl` [Example 38, 4-bromo-2,6-dichloro-N-[2-(2-hydroxyphenyl)ethyl]benzenesulfonamide], the half-life at 1 μM in data set [1] lay in the range of 2 to 4 min. The “IC50 XO” value at xanthine oxidase is “—”. The figures for the IC50 on hNox4 (read-out: IC50 Nox4) and against Nox2 were 300 nM and 1500 nM, respectively. The fraction unbound at 4 h, 10 μM in data set [2] turned out to be 0.0062. Besides, the “Chem. stab. pH 7.4” value in data set [3] is reported as “stable”.
As to `Cc1cc(C)c(S(=O)(=O)NCCc2ccccc2O)c(C)c1` [Example 37, N-[2-(2-hydroxyphenyl)ethyl]-2,4,6-trimethylbenzene-1-sulfonamide], the half-life at 1 μM in data set [1] lay in the range of 2 to 4 min. The “IC50 XO” value on xanthine oxidase was “—”. In addition, the IC50 at hNox4 (read-out: IC50 Nox4) amounted to 800 nM; at Nox2, 900 nM. The fraction unbound at 4 h, 10 μM in data set [2] came to 0.011. The “Chem. stab. pH 7.4” value in data set [3] is “stable”.
Regarding `Cc1ccccc1CCNS(=O)(=O)c1c(C)cccc1Cl` [Example 11, 2-chloro-6-methyl-N-[2-(2-methylphenyl)ethyl]benzene-1-sulfonamide], the “IC50 XO” value at xanthine oxidase was “—”. Moreover, the IC50 on hNox4 (read-out: IC50 Nox4) and on hNox4 (setting [4]) was 2400 nM throughout. For the same compound, the “IC50 Nox2” value at Nox2 is listed as “—”.
With `Cc1cc(O)cc(C)c1S(=O)(=O)NCCc1ccccc1O` [Example 48, 4-hydroxy-N-[2-(2-hydroxyphenyl)ethyl]-2,6-dimethyl-benzenesulfonamide], the half-life at 1 μM in data set [1] was found to be 16 min. Also, at xanthine oxidase, the “IC50 XO” value is “—”. Besides, the IC50 is 22000 nM on hNox4 (read-out: IC50 Nox4) and 870 nM on Nox2. Moreover, the fraction unbound at 4 h, 10 μM in data set [2] was determined as 0.011. For the same compound, the “Chem. stab. pH 7.4” value in data set [3] is “stable”.
Turning to `Cc1cc(Cl)c(S(=O)(=O)NCCc2ccccc2O)c(C)c1O` [Example 44, 6-chloro-3-hydroxy-N-[2-(2-hydroxyphenyl)ethyl]-2,4-dimethyl-benzenesulfonamide], the half-life at 1 μM in data set [1] came to 7 min. Also, the “IC50 XO” value at xanthine oxidase is “—”. The IC50 turned out to be 2400 nM on hNox4 (read-out: IC50 Nox4) and 900 nM at Nox2. Besides, the fraction unbound at 4 h, 10 μM in data set [2] came out at 0.015. The “Chem. stab. pH 7.4” value in data set [3] is on record as “stable”.
Take `COc1cc(C)c(S(=O)(=O)NCCc2ccccc2Cl)c(C)c1` [Example 46, N-[2-(2-chlorophenyl)ethyl]-4-methoxy-2,6-dimethyl-benzenesulfonamide]: the half-life at 1 μM in data set [1] came out at 2 min. Moreover, at xanthine oxidase, the “IC50 XO” value was “—”. The concentration for half-maximal inhibition (IC50) on hNox4 (read-out: IC50 Nox4) worked out at 300 nM. Further, the fraction unbound at 4 h, 10 μM in data set [2] was 0.0026. For the same compound, the “IC50 Nox2” value on Nox2 is recorded as “—”. In addition, in data set [3], the “Chem. stab. pH 7.4” value is “stable”.
With `Cc1ccccc1CCNS(=O)(=O)c1c(Cl)cc(Br)cc1Cl` [Example 17, 4-bromo-2,6-dichloro-N-[2-(2-methylphenyl)ethyl]benzene-1-sulfonamide], in data set [1], the half-life at 1 μM fell in the range of 2 to 3 min. The “IC50 XO” value at xanthine oxidase is recorded as “—”. Besides, the IC50 at hNox4 (read-out: IC50 Nox4) and on hNox4 (setting [4]) was 270 nM in each case. In addition, the fraction unbound at 4 h, 10 μM in data set [2] was 0.0002. Further, on Nox2, the “IC50 Nox2” value is “—”. In addition, the “Chem. stab. pH 7.4” value in data set [3] is recorded as “stable”.
Regarding `O=S(=O)(NCCc1ccccc1Cl)c1c(Cl)cc(C2CC2)cc1Cl` [Example 26, 2,6-dichloro-N-[2-(2-chlorophenyl)ethyl]-4-cyclopropylbenzene-1-sulfonamide], at xanthine oxidase, the “IC50 XO” value was “—”. Also, the concentration for half-maximal inhibition (IC50) at hNox4 (read-out: IC50 Nox4) and at hNox4 (setting [4]) was 360 nM throughout. Further, on Nox2, the “IC50 Nox2” value is “—”.
Take `COc1cc(C)c(S(=O)(=O)NCCc2ccccc2O)c(C)c1` [Example 47, N-[2-(2-hydroxyphenyl)ethyl]-4-methoxy-2,6-dimethyl-benzenesulfonamide]: the half-life at 1 μM in data set [1] came to 1 min. Moreover, at xanthine oxidase, the “IC50 XO” value was “—”. The 50% inhibitory concentration (IC50) at hNox4 (read-out: IC50 Nox4) amounted to 1600 nM; on Nox2, 1000 nM. The fraction unbound at 4 h, 10 μM in data set [2] was determined as 0.03. For the same compound, the “Chem. stab. pH 7.4” value in data set [3] was “stable”.
With `Cc1ccccc1C(F)CNS(=O)(=O)c1c(Cl)cc(Br)cc1Cl` (racemic) [Example 35, 4-bromo-2,6-dichloro-N-[2-fluoro-2-(2-methylphenyl)ethyl]benzene-1-sulfonamide], the half-life at 1 μM in data set [1] lay within 6 to 20 min. For the same compound, the “IC50 XO” value on xanthine oxidase is on record as “—”. On hNox4 (read-out: IC50 Nox4), the IC50 turned out to be 1700 nM. Further, the fraction unbound at 4 h, 10 μM in data set [2] was 0.0002. The “IC50 Nox2” value against Nox2 is “—”. Also, the “Chem. stab. pH 7.4” value in data set [3] is listed as “stable”.
